Measurements taken from patent US8471061B2 (priority 2004, dated 2013).
Several values for one entry are separate records, joined by “and”; a condition that tells them apart may be missing. Equal values may be shown once. Read-outs that look alike come from different tables or passages of the source.

Tests used:
radish = test: Plant activating effect, foliar application, radish; assay type: in vivo; settings: 21 days, 12 seeds
Method: After 600 g of upland soil was packed in a porcelain pot of 12 cm in inner diameter, 12 grains of radish seeds were sowed therein, covered with 5 mm in depth of the soil and allowed to grow in a green house. Foliar application treatment was carried out once a day using the following application liquids. Conditions of the leaves 21 days thereafter were observed.

[1] = Chloride ion concentration of aqueous solutions by ion chromatography; assay type: physicochemical; settings: detection limit 0.1 ppm; each sample
Method: When chloride ion concentration in the aqueous 5-aminolevulinic acid phosphate solutions used in the above-described examples was measured by ion chromatography under the following conditions, it was equal to or lower than the detection limit (0.1 ppm) in each sample.
The measuring conditions are as follows; A: separation column (IonPac AS12A manufactured by Japan Dionex), B: guard column (IonPac AG12A manufactured by Japan Dionex), C: eluting solution (an aqueous solution containing Na2CO3: 3.0 mmol/l and NaHCO3: 0.5 mmol/l), D: flow rate (1.5 ml/min), E: suppressor (ASRS (recycle mode, current value 50 mA)), F: amount of introduced sample (25 μl), G: temperature of constant temperature oven (35° C.) and H: detector (electric conductivity detector).
When chloride ion concentration in the aqueous 5-aminolevulinic acid nitrate solutions used in the above-described examples was measured by ion chromatography under the following conditions, it was equal to or lower than the detection limit (0.1 ppm) in each sample.
The measuring conditions are as follows: A: separation column (IonPac AS12A manufactured by Japan Dionex), B: guard column (IonPac AG12A manufactured by Japan Dionex), C: eluting solution (an aqueous solution consisting of Na2CO3: 3.0 mmol/l and NaHCO3: 0.5 mmol/l), D: flow rate (1.5 ml/min), E: suppressor (ASRS (recycle mode, current value 50 mA)), F: amount of introduced sample (25 μl), G: temperature of constant temperature oven (35° C.) and H: detector (electric conductivity detector).
When chloride ion concentration in the aqueous 5-aminolevulinic acid p-toluenesulfonate solutions used in the above-described examples was measured by ion chromatography under the following conditions, it was equal to or lower than the detection limit (0.1 ppm) in each sample.

[2] = test system: female rats (Sprague-Dawley CD species); settings: for Dead animals: 2000 mg/kg oral, per animal
Method: This test was carried out in accordance with the OECD Guideline No. 423 “Acute Oral Toxicity-Acute Toxicity Grading Method” (adopted on Dec. 17, 2001). Fasted female rats (Sprague-Dawley CD species) of 3 animals per group were treated with 5-aminolevulinic acid phosphate at a dose of 300 mg per kg body weight. In addition, other fasted female rats of two or more groups were treated at a dose of 2000 mg per kg body weight. They were observed after the administration continuously for 2 weeks.

[3] = test system: Escherichia coli WP2 uvrA; test: Back mutation test, WP2uvrA; assay type: cell-based; settings: for number of back mutation, single plates: Phosphate
Method: A test was carried out in accordance with the “Standard of Mutagenicity Tests Using Microorganisms” (Ministry of Labor Notification No. 77, 1988) (partial revision by Ministry of Labor Notification No. 67, 1997) and “Regarding the Tests Concerning Novel Chemical Substances and the like” (dated Nov. 21, 2003: Yaku-Shoku-Hatsu No. 1121002, 2003.11.13 Sei-Kyoku, No. 2, Kan-Ho-Ki-Hatsu No. 031121002). To 0.1 ml of a solution prepared by dissolving 5% (w/v) of 5-aminolevulinic acid phosphate in distilled water (Wako Pure Chemical Industries), 0.5 ml of 0.1 M sodium-phosphate buffer (pH 7.4) (0.5 ml S9 mix in the case of metabolism activation test) was added, and 0.1 ml of each test strain suspension (5 strains of histidine-less Salmonella typhimurium TA 100, TA 98, TA 1535 and TA 1537 and tryptophan-less Escherichia coli WP2 uvrA were used (Japan Bioassay Research Center)) was further added thereto, followed by pre-incubation at 37° C. for 20 minutes while shaking. After completion of the culturing, 2.0 ml of top agar kept at 45° C. in advance was added thereto and layered on a minimum glucose agar plate medium. In this case, 2 plates were arranged for each dosage. However, 3 plates were arranged for a solvent control (negative control). […] In the measurement, an inner area of about 80 mm in diameter of a plate of 86 mm in diameter (84 mm in inner diameter) was measured using an automatic colony analyzer (CA-11: manufactured by System Science), and calculated by carrying out area correction and counting loss correction using a personal computer. However, since reliability of the automatic colony analyzer is reduced when the number of colonies is 1,500 or more, 5 points in the plate were manually measured under the stereoscopic microscope to carry out area correction of the average value. A dosage setting test was carried out on 7 dosages diluted at a common ratio of 4, using a dosage of 5,000 μg/plate as the maximum which is the maximum dosage defined by the guideline. […] Growth inhibition of the strains by this substance to be tested was not found. […] Thus, this test was carried out by setting 5 dosages diluted at a common ratio of 2, using a dosage of 5,000 μg/plate as the maximum which is the maximum dosage defined by the guideline.

Compound: Cl.NCC(=O)CCC(=O)O [5-aminolevulinic acid hydrochloride, reference compound]
- plants judged 0: Abnormality was not found on the leaf surface (radish; 1 ppm in tap water): 4 plants
- plants judged 1: A region discolored to yellow was found on the leaf surface (radish; 1 ppm in tap water): 6 plants
- plants judged 2: A necrotic region was found on the leaf surface (radish; 1 ppm in tap water): 2 plants
- plants judged 0: Abnormality was not found on the leaf surface (radish; 10 ppm in tap water): 4 plants
- plants judged 1: A region discolored to yellow was found on the leaf surface (radish; 10 ppm in tap water): 4 plants
- plants judged 2: A necrotic region was found on the leaf surface (radish; 10 ppm in tap water): 4 plants
- plants judged 0: Abnormality was not found on the leaf surface (radish; 100 ppm in tap water): 3 plants
- plants judged 1: A region discolored to yellow was found on the leaf surface (radish; 100 ppm in tap water): 5 plants
- plants judged 2: A necrotic region was found on the leaf surface (radish; 100 ppm in tap water): 4 plants

Compound: NCC(=O)CCC(=O)O.O=P(O)(O)O [5-aminolevulinic acid phosphate, 5-aminolevulinic Acid Phosphate]
- chloride ion concentration in the aqueous solutions used in the examples [1]: ≤ 0.1 ppm
- Dead animals ([2]; 0.5 hour after administration): 0
- Dead animals ([2]; 1 hour after administration): 0
- Dead animals ([2]; 2 hour after administration): 0
- Dead animals ([2]; 4 hour after administration): 0
- Dead animals ([2]; day 1 after administration): 0
- Dead animals ([2]; day 2 after administration): 0
- Dead animals ([2]; day 3 after administration): 0
- Dead animals ([2]; day 4 after administration): 0
- Dead animals ([2]; day 5 after administration): 0
- Dead animals ([2]; day 6 after administration): 0
- Dead animals ([2]; day 7 after administration): 0
- Dead animals ([2]; day 8 after administration): 0
- Dead animals ([2]; day 9 after administration): 0
- Dead animals ([2]; day 10 after administration): 0
- Dead animals ([2]; day 11 after administration): 0
- Dead animals ([2]; day 12 after administration): 0
- Dead animals ([2]; day 13 after administration): 0
- Dead animals ([2]; day 14 after administration): 0
- death ([2]; 300 and 2000 mg per kg body weight, 2 weeks): death was not found in all of the rats
- acute oral 50% lethal dose (LD50) ([2]; fasted female rats, observed 2 weeks): > 2,500 mg per kg body weight
- number of back mutation, mean (in parentheses) ([3]; S9 Mix(+), 313 μg/plate): (24) colonies/plate
- number of back mutation, single plates ([3]; S9 Mix(+), 313 μg/plate): 31 colonies/plate and 17 colonies/plate
- number of back mutation, mean (in parentheses) ([3]; S9 Mix(+), 625 μg/plate): (32) colonies/plate
- number of back mutation, single plates ([3]; S9 Mix(+), 625 μg/plate): 40 colonies/plate and 24 colonies/plate
- number of back mutation, mean (in parentheses) ([3]; S9 Mix(+), 1250 μg/plate): (32) colonies/plate
- number of back mutation, single plates ([3]; S9 Mix(+), 1250 μg/plate): 34 colonies/plate and 29 colonies/plate
- number of back mutation, mean (in parentheses) ([3]; S9 Mix(+), 2500 μg/plate): (25) colonies/plate
- number of back mutation, single plates ([3]; S9 Mix(+), 2500 μg/plate): 23 colonies/plate and 27 colonies/plate
- number of back mutation, mean (in parentheses) ([3]; S9 Mix(+), 5000 μg/plate): (28) colonies/plate
- number of back mutation, single plates ([3]; S9 Mix(+), 5000 μg/plate): 25 colonies/plate and 30 colonies/plate
- number of back mutation, mean (in parentheses) ([3]; S9 Mix(−), 313 μg/plate): (31) colonies/plate
- number of back mutation, single plates ([3]; S9 Mix(−), 313 μg/plate): 25 colonies/plate and 36 colonies/plate
- number of back mutation, mean (in parentheses) ([3]; S9 Mix(−), 625 μg/plate): (28) colonies/plate
- number of back mutation, single plates ([3]; S9 Mix(−), 625 μg/plate): 27 colonies/plate and 28 colonies/plate
- number of back mutation, mean (in parentheses) ([3]; S9 Mix(−), 1250 μg/plate): (31) colonies/plate
- number of back mutation, single plates ([3]; S9 Mix(−), 1250 μg/plate): 28 colonies/plate and 33 colonies/plate
- number of back mutation, mean (in parentheses) ([3]; S9 Mix(−), 2500 μg/plate): (27) colonies/plate
- number of back mutation, single plates ([3]; S9 Mix(−), 2500 μg/plate): 25 colonies/plate and 28 colonies/plate
- number of back mutation, mean (in parentheses) ([3]; S9 Mix(−), 5000 μg/plate): (31) colonies/plate
- number of back mutation, single plates ([3]; S9 Mix(−), 5000 μg/plate): 25 colonies/plate and 36 colonies/plate
